Results: patent US20250296953A1, “3,4-THIAZOLO-STEROIDS AND METHODS OF MAKING AND USING THE SAME” (Arkansas State University - Jonesboro, priority 2018, published 2025)
Where two headings read alike, the source gives them in different places.

What was measured:
Type in all cases: cell-based
LOX IMVI = test: Melanoma cytotoxicity assay (resazurin); details: for IC50: Homo sapiens, LOX IMVI melanoma cells
In short: (§1)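 Following 24 h of compound treatment (triplicates, 37° C, 5% CO2) of cells seeded one day earlier at about 4000 per well, viability was gauged with resazurin. IC50 values derive from sigmoidal concentration–viability curves.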

SK-MEL-25 = test: Melanoma cytotoxicity assay (resazurin); details: for IC50: Homo sapiens; for SK-MEL-25 (% viability): human, 24 h
In short: as §1

SK-MEL-28 = test: Melanoma cytotoxicity assay (resazurin); details: for IC50: Homo sapiens, SK-MEL-28 melanoma cells; for SK-MEL-28 (% viability): human, 24 h
In short: as §1

SK-MEL-5 = test: Melanoma cytotoxicity assay (resazurin); details: human, 24 h
In short: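 ~4000 cells/well, 24 h attach, 37° C/5% CO2; cpd triplicate, 24 h; resazurin 6 h; fluor 544/590 nm. % viability vs DMSO after media-blank subtraction; IC50 from dilution series, sigmoidal fit.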

HFF-1 = test: Cytotoxicity assay (resazurin); details: Homo sapiens, HFF-1 cells
MALME-3M = test: Melanoma cytotoxicity assay (resazurin); details: human, 24 h
Protocol: On day 1, the cell line trypsinized and centrifuged to form cell pellet. The pellet was diluted in media, then counted using Countess automated cell counter. Approximately 4000 cells (198 uL) per well plated in […]. A control well of 200 uL growth media was also prepared. Wells closest to plate perimeter were filled with 200 uL PBS to prevent inner well evaporation. The 96 well plates are incubated in 37° C. incubator at 5% CO2 for 24 hours.
On day 2, compounds were added (in triplicate) along with DMSO/Dacarbazine controls (2 uL) added to bring wells to volume of 200 μL. The 96 well plates are incubated in 37° C. incubator at 5% CO2 for 24 hours.
On day 3, 40 μL of 0.15 mg/ml reszurin solution added to wells. Samples were placed in a 37° C. incubator at 5% CO2 for 6 hours. Excitation and emission for fluorescence measured at 544 nm and 590 nm using BMG Labtech Fluostar Optima plate reader
Percent viability determined by taking average of each triplicate well fluorescence and subtracting GM well reading to remove the background signal. This difference is then divided by the average of the negative control (DMSO) wells to determine percent viability.
IC50s were determined by using cereal dilution of compound to determine viability. Viabilities and concentration of cells are analyzed in Graphpad Prism by creating sigmoidal curve graph, which will determine the IC50 concentration.
We analyzed the ability of the thiazole-androstane derivatives to inhibit growth in various melanoma cell lines. The growth inhibition against melanoma cell lines of various compound is shown below in Tables 19 and 20. Inhibition results are reported as the IC50 concentration in μM of the indicated compound or as the percent viability […] of the indicated compound. NA=not available.

[1] = SK-MEL-25 melanoma cells (head prints SK-25), read-out: SK-25 IC50

In the case of `C[C@]12CC[C@H]3[C@@H](CC=C4c5sc(Nc6ccc(F)cc6F)nc5CC[C@@]43C)[C@@H]1CC[C@@H]2O` [IIIa.13, (1S,2R,13R,14S,17S,18S)-7-(2,4-difluoroanilino)-2,18-dimethyl-8-thia-6-azapentacyclo[11.7.0.02,10.05,9.014,18]icosa-5(9),6,10-trien-17-ol], the IC50 (LOX IMVI) is reported as 6.42 µM, the IC50 (SK-MEL-25; [1]) is reported as 8 µM and the “SK-MEL-25 (% viability)” value (SK-MEL-25) is reported as 8.72%. The IC50 (SK-MEL-28) was 11 µM, the “SK-MEL-28 (% viability)” value (SK-MEL-28) was 3.92% and the “SK-MEL-5 (% viability)” value (SK-MEL-5) was 4.9%. The IC50 (HFF-1; read-out: HFF-1 (IC50)) was 25 µM and the “MALME-3M (% viability)” value (MALME-3M) was 20.83%.
In the case of `Cc1ccc(Nc2nc3c(s2)C2=CC[C@H]4[C@@H]5CC[C@H](O)[C@@]5(C)CC[C@@H]4[C@@]2(C)CC3)cc1` [IIIa.33, (1S,2R,13R,14S,17S,18S)-2,18-dimethyl-7-(4-methylanilino)-8-thia-6-azapentacyclo[11.7.0.02,10.05,9.014,18]icosa-5(9),6,10-trien-17-ol], the IC50 (LOX IMVI) is reported as 4.64 µM, the IC50 (LOX IMVI; 24 hours, resazurin) is reported as less than 10 µM and the “LOX-IMVI (% viability)” value (LOX IMVI; human, 24 h) is reported as 6%. The IC50 (SK-MEL-25; [1]) was 6 µM, the IC50 (SK-MEL-25; SK-MEL-25 melanoma cells, 24 hours, resazurin, read-out: SK-MEL-25 (IC50)) was less than 10 µM and the “SK-MEL-25 (% viability)” value (SK-MEL-25) was 7.53%. The IC50 (SK-MEL-28) was 6 µM, the IC50 (SK-MEL-28; 24 hours, resazurin) was less than 10 µM and the “SK-MEL-28 (% viability)” value (SK-MEL-28) was 0.90%. For the same compound, the “SK-MEL-5 (% viability)” value (SK-MEL-5) was 1.21%, the IC50 (HFF-1; read-out: HFF-1 (IC50)) was 13 µM and the IC50 (HFF-1; read-out: IC50 in cell line HFF-1) was 13 µM. The “MALME-3M (% viability)” value (MALME-3M) was 23.03%.
`C[C@]12CC[C@H]3[C@@H](CC=C4c5sc(Nc6ccccn6)nc5CC[C@@]43C)[C@@H]1CC[C@@H]2O` [IIIa.24, (1S,2R,13R,14S,17S,18S)-2,18-dimethyl-7-(2-pyridylamino)-8-thia-6-azapentacyclo[11.7.0.02,10.05,9.014,18]icosa-5(9),6,10-trien-17-ol] was tested, and the IC50 (LOX IMVI) was greater than 20 µM, the “SK-MEL-25 (% viability)” value (SK-MEL-25) was 1.76% and the “SK-MEL-28 (% viability)” value (SK-MEL-28) was 1.50%. The “SK-MEL-5 (% viability)” value (SK-MEL-5) was 2.25%, the IC50 (HFF-1; read-out: HFF-1 (IC50)) was greater than 20 µM and the “MALME-3M (% viability)” value (MALME-3M) was 10.69%.
